Results taken from patent publication US8003137B2, “Extracts of Aristolochia paucinervis pomel and uses thereof” (FasTrack Pharmaceuticals, Inc., priority 2008, dated 2011).

System: human red blood cells
Experiment: Hemolytic activity on heparinized whole blood
Assay type: cell-based
Details: 0- to 14-day incubation, all dilutions examined
Method: The hemolytic activity of A. paucinervis pomel extract on blood cells was examined, and compared with the ability of Triton-X to lyse these cells.
To perform these studies, heparinized-whole blood was incubated with dilutions of Triton-X-100 (0-1%) or 5× (4.4 mg/ml) A. paucinervis pomel extract for 40 minutes at room temperature. Plasma was collected after centrifugation at 1200×g for 5 minutes and diluted 1/20 with DPBS. The absorbance at 560 nm of 100 μl of each diluted plasma sample was measured. In a second experiment, the effects of incubating whole blood with dilutions of 5× (4.4 mg/ml) A. paucinervis pomel extract for 0, 3, 7 and 14 days was assessed. Experimental results are shown in FIG. 5A (cells treated with A. paucinervis pomel extract) and FIG. 5B (cells treated with Triton-X-100).

Triton-X
hemolytic activity on blood cells: toxic to blood cells
